Laboratory results reported in ChEMBL document CHEMBL1201862, “PubChem BioAssay data set” (2004).
Activity calls are given as the source filed them.

Columns and labels:
[1] = NIH-3T3 fibroblast cytotoxicity, dose response, cytotoxicity control, cell-based, fluorescence, Alamar Blue, secondary assay (AID 2327); format: functional;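 note: NIH-3T3 mouse fibroblasts cultured with fluconazole at 8 µg/mL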
Cytochrome P450 1A2 [2] = molecular target: T1, Cytochrome P450 1A2 (Homo sapiens, UniProt P05177);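 note: PubChem cytochrome P450 panel assay, CYP1A2 panel member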
T1 sequence (P05177 whole entry): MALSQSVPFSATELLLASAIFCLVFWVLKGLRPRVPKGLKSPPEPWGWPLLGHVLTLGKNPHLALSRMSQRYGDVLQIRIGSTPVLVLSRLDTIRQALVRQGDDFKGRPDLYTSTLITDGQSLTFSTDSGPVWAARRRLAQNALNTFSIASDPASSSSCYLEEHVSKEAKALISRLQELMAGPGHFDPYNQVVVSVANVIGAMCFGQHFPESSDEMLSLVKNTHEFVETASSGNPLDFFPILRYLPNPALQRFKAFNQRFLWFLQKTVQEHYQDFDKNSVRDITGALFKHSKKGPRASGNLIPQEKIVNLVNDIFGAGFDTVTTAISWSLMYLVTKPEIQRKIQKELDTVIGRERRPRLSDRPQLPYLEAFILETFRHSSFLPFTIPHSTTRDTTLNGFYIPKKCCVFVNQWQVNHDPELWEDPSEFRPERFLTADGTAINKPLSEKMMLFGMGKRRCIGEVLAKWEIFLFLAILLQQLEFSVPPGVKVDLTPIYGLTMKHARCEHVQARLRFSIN

[3] = Luminescence Cell-Based Dose Retest to Confirm Inhibitors of Cancer Stem Cells. [Related pubchem assays (depositor defined):AID2717, AID2721]; format: functional; conditions: Homo sapiens
[4] = fluconazole-exposed Candida albicans growth modulators – fluorescence, retest, confirmation (AID 2467); format: functional, cell-based
[5] = viability loss of HMLE_sh_eGFP cells – cell-based, luminescence, counter-screen for HMLE_sh_ECad selective toxicity project, dose response (AID 463074); format: functional, Homo sapiens;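 note: HMLE human mammary epithelial cells expressing control shRNA against eGFP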
Cytochrome P450 2C9 = Cytochrome P450 2C9 (Homo sapiens, UniProt P11712)
Cytochrome P450 1A2 [6] = molecular target: T1, Cytochrome P450 1A2; remark: listed apart in the source
Cytochrome P450 2C19 = Cytochrome P450 2C19 (Homo sapiens, UniProt P33261); test: Cytochrome panel assay with activity outcomes. Panel member name: p450-cyp2c19 Compounds with AC50 equal or less than 10 uM are considered active; format: functional
Cytochrome P450 2D6 = Cytochrome P450 2D6 (Homo sapiens, UniProt P10635);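 note: CYP2D6 member of a cytochrome P450 panel assay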
[7] = molecular target: Neurotensin receptor type 1 (Homo sapiens, UniProt P30989); format: functional;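 note: Image-based confirmatory dose-response assay measuring agonist activity at NTR1; NTR1-expressing U2OS osteosarcoma cells imaged for beta-arrestin GFP spot formation; agonist potency where compounds increase beta-arrestin recruitment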
MDCK = test: antiviral activity against H1N1 influenza, dose response, cell-based, strain KY136 (AID 540257); format: functional; conditions: Canis lupus familiaris
[8] = molecular target: T2, Mannose-6-phosphate isomerase (Homo sapiens, UniProt P34949); test: MPI inhibition at elevated mannose 6-phosphate – biochemical, fluorescence intensity, high mannose 6-phosphate, primary screen (AID 1220)
T2 sequence (P34949 whole entry): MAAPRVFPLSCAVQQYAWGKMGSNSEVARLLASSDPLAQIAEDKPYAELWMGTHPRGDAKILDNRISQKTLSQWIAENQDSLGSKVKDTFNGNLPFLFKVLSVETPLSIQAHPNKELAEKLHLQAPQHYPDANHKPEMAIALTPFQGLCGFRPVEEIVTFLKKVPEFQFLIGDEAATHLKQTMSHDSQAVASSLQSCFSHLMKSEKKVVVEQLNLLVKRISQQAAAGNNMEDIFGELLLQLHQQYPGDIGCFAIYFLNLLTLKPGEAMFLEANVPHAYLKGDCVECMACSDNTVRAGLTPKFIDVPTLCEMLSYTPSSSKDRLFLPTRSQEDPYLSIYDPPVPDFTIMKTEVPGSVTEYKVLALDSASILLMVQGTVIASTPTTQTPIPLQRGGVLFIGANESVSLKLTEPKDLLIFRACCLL

[9] = molecular target: T3, Heat shock factor protein 1 (Mus musculus, UniProt P38532); test: enhancement of HSF1-driven luciferase signal – cell-based, NIH3T3, luminescence, dose retest, confirmation (AID 435004); format: functional;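 note: stress induced by proteasome inhibitor MG132 added 30 min after compound; luciferase reporter driven by HSF1 response element in NIH3T3 cells; actives raise luminescence as potentiators of the MG132 stress response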
T3 sequence (P38532 whole entry): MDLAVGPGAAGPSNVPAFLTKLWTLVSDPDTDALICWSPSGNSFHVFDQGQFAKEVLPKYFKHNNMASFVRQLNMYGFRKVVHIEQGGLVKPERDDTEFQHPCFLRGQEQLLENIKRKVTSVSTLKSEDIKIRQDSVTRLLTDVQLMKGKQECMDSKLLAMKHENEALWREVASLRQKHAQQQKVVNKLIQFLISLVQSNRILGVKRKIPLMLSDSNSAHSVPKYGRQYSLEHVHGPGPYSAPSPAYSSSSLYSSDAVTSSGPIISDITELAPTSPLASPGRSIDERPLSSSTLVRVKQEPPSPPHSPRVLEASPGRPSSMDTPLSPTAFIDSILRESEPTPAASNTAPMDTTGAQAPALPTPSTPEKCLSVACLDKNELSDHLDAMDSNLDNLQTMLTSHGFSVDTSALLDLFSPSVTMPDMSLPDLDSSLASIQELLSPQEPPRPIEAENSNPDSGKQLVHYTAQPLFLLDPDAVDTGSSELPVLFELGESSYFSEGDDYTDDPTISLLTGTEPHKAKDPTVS

[10] = viability loss in HeLa cells – cytotoxicity control for MgcRacGAP inhibitor project, dose response (AID 624300); format: functional
[11] = viability of HCT116 lacking mutant beta-catenin – cell-based, human colon tumor, dose response (AID 1045); format: functional;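 note: HCT116 colon tumor cells with beta catenin knocked out; cells exposed to compound for 60 hours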
Nonstructural protein 1 = Nonstructural protein 1 (Influenza A virus, UniProt Q194T2); format: functional, Influenza A virus (A/California/07/2009(H1N1))
[12] = viability of PTEN-deleted HCT116 cells – cell-based, HCT116 PTEN knockout, dose response (AID 1047); format: functional;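 note: HCT116 colon tumor cells with PTEN knocked out; cells exposed to compound for 60 hours before readout; potency for loss of cell viability measured by luminescence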
[13] = molecular target: T4, Rac GTPase-activating protein 1 (Homo sapiens, UniProt Q9H0H5); test: blockers of MgcRacGAP-driven Rac1 GTP hydrolysis – biochemical, ADP Hunter fluorescence, primary and confirmatory, confirmation (AID 624330); format: functional
T4 sequence (Q9H0H5 whole entry): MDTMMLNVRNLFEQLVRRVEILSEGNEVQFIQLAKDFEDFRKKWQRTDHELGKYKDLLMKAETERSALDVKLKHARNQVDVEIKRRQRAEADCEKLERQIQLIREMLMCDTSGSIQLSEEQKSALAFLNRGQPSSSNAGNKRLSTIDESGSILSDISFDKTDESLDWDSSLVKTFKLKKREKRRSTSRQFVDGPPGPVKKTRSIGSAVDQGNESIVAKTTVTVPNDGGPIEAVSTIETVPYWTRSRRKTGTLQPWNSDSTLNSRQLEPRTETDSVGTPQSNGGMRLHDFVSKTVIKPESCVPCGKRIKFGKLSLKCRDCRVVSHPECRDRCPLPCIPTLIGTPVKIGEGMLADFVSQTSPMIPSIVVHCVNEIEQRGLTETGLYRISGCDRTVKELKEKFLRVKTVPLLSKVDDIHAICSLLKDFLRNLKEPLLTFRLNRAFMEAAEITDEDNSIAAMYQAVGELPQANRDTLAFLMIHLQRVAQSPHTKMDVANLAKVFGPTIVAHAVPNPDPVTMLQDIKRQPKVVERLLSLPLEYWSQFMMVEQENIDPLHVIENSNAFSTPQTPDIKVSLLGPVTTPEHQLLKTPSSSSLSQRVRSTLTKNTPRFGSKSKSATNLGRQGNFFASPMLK

[14] = molecular target: T5, Short transient receptor potential channel 4 (Mus musculus, UniProt Q9QUQ5); test: calcium entry via TRPC4 opening agents – cell-based, HEK293 TRPC4/mu-opioid, Fluo-4 calcium, dose response (AID 434937); format: functional
T5 sequence (Q9QUQ5 whole entry): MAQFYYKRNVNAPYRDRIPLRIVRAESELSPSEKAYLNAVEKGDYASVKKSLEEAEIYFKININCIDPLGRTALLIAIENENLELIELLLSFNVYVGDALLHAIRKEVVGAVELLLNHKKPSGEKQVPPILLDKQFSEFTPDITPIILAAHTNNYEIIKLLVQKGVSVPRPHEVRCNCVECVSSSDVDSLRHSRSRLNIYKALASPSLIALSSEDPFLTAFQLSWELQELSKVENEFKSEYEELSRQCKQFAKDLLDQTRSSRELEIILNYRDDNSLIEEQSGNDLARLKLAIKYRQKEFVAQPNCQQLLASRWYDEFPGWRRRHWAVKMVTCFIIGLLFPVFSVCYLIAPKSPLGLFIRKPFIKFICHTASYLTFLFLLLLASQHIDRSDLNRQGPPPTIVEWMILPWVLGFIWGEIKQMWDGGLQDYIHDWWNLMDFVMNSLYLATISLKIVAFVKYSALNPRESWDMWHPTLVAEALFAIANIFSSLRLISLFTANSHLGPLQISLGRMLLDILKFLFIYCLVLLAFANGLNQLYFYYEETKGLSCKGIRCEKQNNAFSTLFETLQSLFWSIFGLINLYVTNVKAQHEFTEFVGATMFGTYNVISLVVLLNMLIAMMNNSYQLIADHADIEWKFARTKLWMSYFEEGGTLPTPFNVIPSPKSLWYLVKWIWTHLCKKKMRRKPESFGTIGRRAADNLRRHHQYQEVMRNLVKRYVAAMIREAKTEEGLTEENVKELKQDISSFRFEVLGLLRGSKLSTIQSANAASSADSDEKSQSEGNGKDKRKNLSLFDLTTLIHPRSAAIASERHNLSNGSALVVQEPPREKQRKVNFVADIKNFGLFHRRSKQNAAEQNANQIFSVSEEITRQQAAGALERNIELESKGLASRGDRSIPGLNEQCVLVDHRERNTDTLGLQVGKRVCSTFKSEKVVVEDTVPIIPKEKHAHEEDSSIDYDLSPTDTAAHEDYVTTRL

[15] = molecular target: Opioid receptors; mu & delta (Homo sapiens, UniProt P41143+P35372); test: OPRM1-OPRD1 heterodimer agonist potency – cell-based, luminescence, dose response (AID 588407); format: functional
[16] = molecular target: 5-hydroxytryptamine receptor 5A (Homo sapiens, UniProt P47898); test: Counterscreen for agonists of OPRM1-OPRD1 heterodimerization: luminescence-based cell-based high throughput dose response assay to identify agonists of 5-hydroxytryptamine (serotonin) 5A receptor (HTR5A). [Related pubchem assays (depositor defined):AID504326, AID504355, AID504692, AID504904, AID504905]; format: functional
Mu-type opioid receptor = Mu-type opioid receptor (Homo sapiens, UniProt P35372); test: (§1) Counterscreen for agonists of heterodimerization of the mu 1 (OPRM1) and delta 1 (OPRD1) opioid receptors: Luminescence-based cell-based high throughput dose response assay to identify agonists of OPRM1 homodimerization.; format: functional
[17] = molecular target: Delta-type opioid receptor (Homo sapiens, UniProt P41143); test: as §1, with “of OPRD1” for “of OPRM1”, “homodimerization. [Related pubchem assays (depositor defined):AID504326, AID504355, AID504692, AID504904, AID504905]” for “homodimerization.”; format: functional
Delta-type opioid receptor, sequence (P41143 whole entry): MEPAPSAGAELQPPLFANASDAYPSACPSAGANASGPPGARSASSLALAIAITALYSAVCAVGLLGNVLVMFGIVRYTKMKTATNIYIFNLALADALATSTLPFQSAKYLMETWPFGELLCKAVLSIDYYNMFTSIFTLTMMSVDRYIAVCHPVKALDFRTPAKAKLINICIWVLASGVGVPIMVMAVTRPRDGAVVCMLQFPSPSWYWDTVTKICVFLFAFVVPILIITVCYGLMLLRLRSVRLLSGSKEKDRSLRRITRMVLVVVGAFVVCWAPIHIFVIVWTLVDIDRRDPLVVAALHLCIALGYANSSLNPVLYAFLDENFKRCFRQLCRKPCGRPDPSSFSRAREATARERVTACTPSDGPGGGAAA

Cytochrome P450 2D6, sequence (P10635 whole entry): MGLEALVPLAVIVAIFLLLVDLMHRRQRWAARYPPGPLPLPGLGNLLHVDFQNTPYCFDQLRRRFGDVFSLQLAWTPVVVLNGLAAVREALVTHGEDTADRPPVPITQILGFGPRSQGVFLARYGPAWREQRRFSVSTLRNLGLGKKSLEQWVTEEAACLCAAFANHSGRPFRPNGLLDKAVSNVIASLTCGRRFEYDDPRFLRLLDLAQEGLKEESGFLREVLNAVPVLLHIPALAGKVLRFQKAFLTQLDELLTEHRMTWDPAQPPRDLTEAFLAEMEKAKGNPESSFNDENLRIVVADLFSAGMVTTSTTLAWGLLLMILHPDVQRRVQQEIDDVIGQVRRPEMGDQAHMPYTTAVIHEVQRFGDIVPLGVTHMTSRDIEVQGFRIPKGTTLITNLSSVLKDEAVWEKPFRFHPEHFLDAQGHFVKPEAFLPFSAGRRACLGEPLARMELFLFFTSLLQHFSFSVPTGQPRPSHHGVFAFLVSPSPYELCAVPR
Neurotensin receptor type 1, sequence (P30989 whole entry): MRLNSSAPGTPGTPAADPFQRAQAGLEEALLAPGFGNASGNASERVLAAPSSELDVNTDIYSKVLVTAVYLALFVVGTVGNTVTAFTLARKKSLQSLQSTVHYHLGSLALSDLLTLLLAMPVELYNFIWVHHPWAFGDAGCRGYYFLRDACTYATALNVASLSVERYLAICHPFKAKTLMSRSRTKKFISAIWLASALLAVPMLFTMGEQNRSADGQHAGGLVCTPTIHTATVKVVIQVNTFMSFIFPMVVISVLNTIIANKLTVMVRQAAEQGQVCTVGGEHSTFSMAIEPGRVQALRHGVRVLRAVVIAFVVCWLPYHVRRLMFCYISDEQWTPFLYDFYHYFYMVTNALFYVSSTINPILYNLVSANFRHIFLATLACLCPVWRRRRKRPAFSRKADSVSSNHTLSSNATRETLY
5-hydroxytryptamine receptor 5A, sequence (P47898 whole entry): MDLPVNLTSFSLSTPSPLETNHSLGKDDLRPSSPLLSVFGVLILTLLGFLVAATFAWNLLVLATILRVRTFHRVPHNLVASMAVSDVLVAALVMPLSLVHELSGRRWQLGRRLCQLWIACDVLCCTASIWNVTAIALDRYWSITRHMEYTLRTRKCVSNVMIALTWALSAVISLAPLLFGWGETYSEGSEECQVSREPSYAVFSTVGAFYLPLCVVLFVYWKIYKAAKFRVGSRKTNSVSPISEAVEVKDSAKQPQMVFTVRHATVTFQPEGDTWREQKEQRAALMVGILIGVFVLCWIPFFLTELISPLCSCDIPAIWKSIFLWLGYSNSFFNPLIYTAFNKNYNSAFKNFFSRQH
Mu-type opioid receptor, sequence (P35372 whole entry): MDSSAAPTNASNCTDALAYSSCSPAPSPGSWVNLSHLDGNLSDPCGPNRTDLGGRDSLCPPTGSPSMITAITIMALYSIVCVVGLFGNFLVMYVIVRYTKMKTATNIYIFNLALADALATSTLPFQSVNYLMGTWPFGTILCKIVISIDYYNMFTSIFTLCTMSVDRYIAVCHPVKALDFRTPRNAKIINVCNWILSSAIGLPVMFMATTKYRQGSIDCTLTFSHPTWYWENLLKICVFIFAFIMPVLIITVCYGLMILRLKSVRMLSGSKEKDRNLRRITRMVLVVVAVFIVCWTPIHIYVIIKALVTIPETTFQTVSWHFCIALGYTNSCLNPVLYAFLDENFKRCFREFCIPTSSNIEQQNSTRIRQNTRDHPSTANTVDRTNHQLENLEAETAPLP
Nonstructural protein 1, sequence (Q194T2 whole entry): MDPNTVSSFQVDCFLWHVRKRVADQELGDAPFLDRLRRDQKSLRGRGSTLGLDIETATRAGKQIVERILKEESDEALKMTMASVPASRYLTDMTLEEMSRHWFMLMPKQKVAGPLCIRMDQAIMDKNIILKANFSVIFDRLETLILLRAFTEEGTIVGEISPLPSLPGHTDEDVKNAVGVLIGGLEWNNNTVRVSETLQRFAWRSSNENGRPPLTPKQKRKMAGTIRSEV
Cytochrome P450 2C9, sequence (P11712 whole entry): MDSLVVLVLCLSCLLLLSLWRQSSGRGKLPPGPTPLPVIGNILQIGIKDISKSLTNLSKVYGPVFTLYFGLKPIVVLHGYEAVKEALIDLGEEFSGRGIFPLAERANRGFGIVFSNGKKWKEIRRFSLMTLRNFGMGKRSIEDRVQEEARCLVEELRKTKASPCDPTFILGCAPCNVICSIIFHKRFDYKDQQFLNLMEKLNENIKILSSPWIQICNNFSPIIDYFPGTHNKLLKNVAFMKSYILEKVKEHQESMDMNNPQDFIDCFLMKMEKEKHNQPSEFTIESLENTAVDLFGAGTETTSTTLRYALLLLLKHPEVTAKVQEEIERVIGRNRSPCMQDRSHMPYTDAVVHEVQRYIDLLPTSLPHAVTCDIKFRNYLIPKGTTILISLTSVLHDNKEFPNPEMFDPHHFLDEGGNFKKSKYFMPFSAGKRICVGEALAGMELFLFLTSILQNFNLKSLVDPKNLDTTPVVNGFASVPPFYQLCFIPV
Cytochrome P450 2C19, sequence (P33261 whole entry): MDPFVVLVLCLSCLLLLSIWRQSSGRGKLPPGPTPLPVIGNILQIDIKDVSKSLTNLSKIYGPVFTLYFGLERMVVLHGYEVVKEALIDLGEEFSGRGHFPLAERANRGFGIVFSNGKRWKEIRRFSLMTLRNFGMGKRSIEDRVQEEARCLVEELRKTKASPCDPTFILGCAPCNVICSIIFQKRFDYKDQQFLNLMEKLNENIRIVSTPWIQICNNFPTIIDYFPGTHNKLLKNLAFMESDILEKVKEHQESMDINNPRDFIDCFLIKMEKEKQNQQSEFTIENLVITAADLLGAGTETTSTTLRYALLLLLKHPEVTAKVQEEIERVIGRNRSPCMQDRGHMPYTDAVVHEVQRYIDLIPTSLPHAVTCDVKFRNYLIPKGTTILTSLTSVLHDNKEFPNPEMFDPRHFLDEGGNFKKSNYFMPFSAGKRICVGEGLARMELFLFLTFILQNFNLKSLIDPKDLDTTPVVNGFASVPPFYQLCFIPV

## CCCc1ccc(C2C3=C(CC(C)(C)CC3=O)N=C3C2=C(O)c2ccccc23)cc1 (stereo not drawn)
[1]
  EC50: > 150 µM (inactive)
Cytochrome P450 1A2 [2]
  AC50: 6.31 µM (inconclusive)
[3]
  AC50: 24.9 µM (active)
[4]
  EC50: 2.66 µM (active)
[5]
  AC50: 187 µM (active)

## Cn1cccc1C(=O)N1CCC2(CCCN(c3ncccn3)C2)CC1
Cytochrome P450 2C9
  AC50: inconclusive
Cytochrome P450 1A2 [6]
  AC50: inconclusive
Cytochrome P450 2C19
  AC50: inconclusive
Cytochrome P450 2D6
  AC50: inconclusive

## COC(=O)c1ccc2c(c1)C(C)(C)C(/C=C/c1ccc(O)cc1)=[N+]2C
[7]
  EC50: 7.59 µM (active)
MDCK
  IC50: 5.29 µM (active)
[8]
  IC50: > 50 µM (not active)
[9]
  EC50: > 260 µM (inconclusive)
[10]
  CC50: 35.1 µM (active)
[11]
  EC50: 2.15 µM (active)
Nonstructural protein 1
  IC50: 20.2 µM (active)
[12]
  EC50: 2.06 µM (active)
[13]
  IC50: 29.5 µM (active)

## CN(C)CCCN(C(=O)c1ccc(S(=O)(=O)N(C)C2CCCCC2)cc1)c1nc2ccc(F)cc2s1.Cl
[14]
  EC50: 1.88 µM (active)
[15]
  EC50: > 0.3805 µM
[16]
  EC50: > 92.5 µM (inactive)
Mu-type opioid receptor
  EC50: 4.85 µM (active)
[17]
  EC50: 69.2 µM (inactive)
